Where two headings read alike, the source gives them in different places.
Experiments:
PBCEC [1] = conditions: for cytotoxic or barrier-weakening (adverse) effects / effect on cellular viability: up to 10 µM
PBCEC [2] = experiment: Electrical capacitance cCL of the cell monolayer by impedance spectroscopy; assay type: cell-based, porcine; conditions: 1 µM apical, referred to t = 0 h, n = 9 (negative control 99 ± 2%)
Description: (§1) In order to study the barrier integrity PBCEC were incubated with 1 µM OTA, OTα, CIT and DHCIT in the apical compartment (blood side) of Transwell® filter inserts for 48 h. The TEER values as well as the electrical capacitance (cCL) were monitored by cellular impedance spectroscopy (Figure 4A,B). As a negative control the permeability of […] was measured after 48 h. Sucrose is not transported by any cellular transport protein and represents a marker for an intact BBB.
Besides the TEER values, the electrical capacitance cCL of the cell monolayer was also monitored for 48 h (Figure 4B). As cellular bilayer membranes behave like an electrical capacitor, they influence the cellular impedance. Changes in cCL are markers for the integrity of the cells. Weak cytotoxic effects lead to a reduction of cCL, whereas strong cytotoxic effects result in an exponential increase in cCL to more than 150% due to the usually observed detachment of the cells from the surface.
For barrier integrity, TEER values were monitored using a cellZscope® cellular impedance spectrometer (nanoAnalytics, Münster, Germany). […]. The detailed protocols can be found in the Supplementary Materials.
After 48 h the medium was […]
The Transwell® filters were briefly […]
equipped with a 24 12‐well Transwell® filter setup. Each well was previously filled with 1650 μL serum‐free medium. Transendothelial electrical resistances (TEER) were analyzed using the cellZscope® device. Only Transwell® filters with TEER values of more than 600 Ω∙cm² and electrical […]
76 μ L of the medium in the apical […]
concentration of the mycotoxins was 1 μM at the beginning of the mycotoxin incubation. The final solvent concentration was 0.1% ACN. […]
and 48 h after toxin application. […]

PBCEC [3] = assay type: cell-based, porcine; conditions: pig
Description: as §1, with “BBB. […]” for “BBB.”
6.1. Cellular impedance spectroscopy […]
6.2. […] permeability
As additional method to control the barrier tightness the permeability of radiolabeled […]
across the Transwell® inserts was measured. Since 14C sucrose is not transported or taken up by endothelial cells, the permeability of 14C sucrose is an appropriate parameter for barrier integrity.
After 48 h exposure to the mycotoxins 1 μ Ci (37 kBq) […] (Amersham, Buckinghamshire, UK) was applied to the apical compartment. Samples from the basolateral compartment were collected after 10, 20, 30, 40, 60 and 80 min, diluted in scintillation fluid and analyzed with a scintillation counter as previously described.

in vitro [4] = conditions: pig
in vitro [5] = conditions: pig; remark: listed apart in the source
Description: (§2) For transfer studies from the apical (blood) side to the basolateral compartment (brain side), 1 µM of mycotoxins were applied on the apical side of the Transwell® filter compartment. Over 48 h, OTA, OTα, CIT, and DHCIT were quantified at eight points in time in both compartments by HPLC-MS/MS in order to investigate the transfer and potential metabolism of the applied compounds.
(§3) Both devices were operated with Analyst 1.6.2 software (SCIEX Germany GmbH, Darmstadt, Germany). Chromatographic separation of OTA, OTα, CIT, and DHCIT was performed on a 100 mm × 2.1 mm Halo RP-Amide 2.7 µm column (Advanced Materials Technology, Wilmington, NC, USA) equipped with an Ultra filter (KrudKatcher, Phenomenex, Aschaffenburg, Germany) at 40 °C using a gradient of ACN+1% formic acid (FA) (Solvent A) and H2O+1% FA (solvent B) at a flow rate of 250 µL/min. […] Afterwards, the column was re-equilibrated for 4 min. An injection volume of 5 µL was used. A diverter valve was used to exclude the first 5 min of the HPLC run from the mass spectrometer and reduce matrix contamination. The Ion Drive Turbo V ion source was heated to 400 °C. Further conditions were curtain gas (CUR) 35 psi N2, nebuliser gas (GS1) 45 psi N2, heater gas (GS2) 55 psi N2, and ion spray voltage 4500 V in positive and −4500 V in negative ionization mode; each MRM transition was monitored for 5 ms. Detailed mass spectrometer settings are given in the Supplementary Materials of this article.
(§4) The permeability coefficients p were calculated according to (1) as described in detail in [15]:(1) p[cm/s]=cbas[%]/[…]·Vap[cm³]/A[cm^2]·t[s] where cbas is the mycotoxin concentration in the basolateral compartment at a certain time t [s]. The initial concentration in the apical compartment is c0 h,ap and Vap is the volume of the compartment at the beginning of the experiment. A is the area of the filter insert membrane. The resulting permeability of the mycotoxin across the cell monolayer pc was calculated as shown in (2):(2) 1/pc [cm/s]=1/pc+f [cm/s][…]1/pf[cm/s] where pc+f is the permeability coefficient of the transfer study and pf the permeability coefficient of the cell-free polycarbonate filter membrane. […]
(§5) serum) and centrifugation at 220 × g at 20 °C for 10 min the supernatant was removed. Fresh complete medium was added and the cell pellet was gently resuspended twice to a final concentration of 150,000 cells/mL. 100 μ L of this suspension were seeded on rat‐tail collagen coated 96‐well plates (rat‐ tail collagen was isolated as described previously) resulting in 15,000 cells per well. PBCEC were incubated at 37 °C, 5% CO2 in a saturated humidified atmosphere. After 48 h the medium was replaced with serum‐free medium (DMEM/Ham’s F‐12 with 100 U/mL penicillin, 100 μg/mL […]
(§6) Aldrich, Steinheim, Germany)). […]
(§7) The thawing and seeding procedure was performed according to the protocol already described for the viability test as previously published. Instead of using 96‐well plates, 500 μL PBCEC suspension (500,000 cells/mL) were seeded in the upper (apical) compartment of a 12‐well Transwell®

PBCEC monolayer = experiment: in vitro; conditions: for amount in the apical compartment after 48 h, of initially applied amount / amount transferred to the basolateral compartment after 48 h, of initially applied amount: 1 µM (760 pmol) apical, n = 9
Description: as §2, §3, §4, §5, §6, §7

PBCEC [6] = conditions: 48 h
[7] = cellular viability (dehydrogenase activity) compared to the negative control, 1 µM, 48 h, CCK-8, n = 18
[8] = cellular viability (dehydrogenase activity) compared to the negative control, 10 µM, 48 h, CCK-8, n = 18

Structure (SMILES)	dehydrogenase activity compared to the negative control (PBCEC [1]; 10 nM, 48 h, CCK-8, n = 18) [%]	electrical capacitance cCL after 48 h (PBCEC [2]) [%]	permeability pc (14C sucrose) after mycotoxin incubation (PBCEC [3])	viability at 1 µM (in vitro [4]; [7]) [%]	viability at 10 µM (in vitro [4]; [8]) [%]	Papp A→B (in vitro [5]) [×10⁻⁶ cm/s]	amount in the apical compartment after 48 h, of initially applied amount (PBCEC monolayer) [%]	amount transferred to the basolateral compartment after 48 h, of initially applied amount (PBCEC monolayer) [%]	cellular morphology (PBCEC [6]; 100 nM and lower concentrations)	cellular morphology (PBCEC [6]; 10 µM)	cytotoxic or barrier-weakening (adverse) effects (PBCEC [1])	effect on cellular viability (PBCEC [1]; 48 h)	viability at 1 µM (in vitro [4]) [%]	viability at 10 µM (in vitro [4]) [%]	permeability relative to the negative control 14C sucrose (factor) (PBCEC monolayer; pig)
C[C@@H]1Cc2c(Cl)cc(C(=O)N[C@@H](Cc3ccccc3)C(=O)O)c(O)c2C(=O)O1 [OTA, Ochratoxin A]	112 ± 12	96 ± 4	0.81 ± 0.17 10^−6 cm/s	92 ± 23	3 ± 4	0.38 ± 0.08	96 ± 7	14 ± 3	no morphological changes	very similar morphological changes of the PBCEC as they were observed for 10 µM T-2 toxin	–	–	–	–	–
Cc1c(O)c(C(=O)O)c(O)c2c1[C@H](C)[C@@H](C)OC2=O [DHCIT, dihydrocitrinone]	–	99 ± 4	0.38 ± 0.17 10^−6 cm/s	–	–	0.51 ± 0.14	87 ± 13	14 ± 3	–	unremarkable	no adverse effects	neither altered the cellular viability	96 ± 11	87 ± 9	–
C[C@@H]1Cc2c(Cl)cc(C(=O)O)c(O)c2C(=O)O1 [OTα, ochratoxin α]	–	98 ± 2	0.56 ± 0.24 10^−6 cm/s	119 ± 18	100 ± 14	0.68 ± 0.15	86 ± 6	19 ± 4	–	unremarkable	no adverse effects	neither altered the cellular viability	–	–	–
CC1=C2C(=CO[C@H](C)[C@H]2C)C(O)=C(C(=O)O)C1=O [CIT, Citrinin]	–	97 ± 4	0.50 ± 0.33 10^−6 cm/s	–	–	1.79 ± 0.4	67 ± 3	40 ± 4	–	unremarkable	no adverse effects	neither altered the cellular viability	106 ± 13	134 ± 13	ca. 4

— publication PMC8147254, “Efflux at the Blood-Brain Barrier Reduces the Cerebral Exposure to Ochratoxin A, Ochratoxin α, Citrinin and Dihydrocitrinone” (Toxins, 2021)
